Source: patent US20150307530A1, “NOVEL MUCOLYTIC AGENTS” (PARION SCIENCES, INC., priority 2012, published 2015)

Experiments:
Balb-C mice = assay: BALF cellularity after pulmonary aspiration in Balb-C mice; type: in vivo; settings: pulmonary aspiration (40 ul deposited dose), BALF at 4 and 24 hours post administration, all concentrations tested, FIG. 9
Experimental: FIG. 9. Balb-C mice were administered Compound Ib at the indicated concentrations via pulmonary aspiration (40 ul deposited dose). Bronchoalveolar lavage fluid (BALF) was collected at 4 and 24 hours post administration and the total cellularity of the BALF was determined.

Muc5B = Muc5B (Homo sapiens, UniProt Q9HC84); assay: Mucin agarose gel western blot: Muc5B reduction in saliva; settings: 30 minute incubation, FIG. 4; for concentration producing Muc5B (mucin) reduction by downward gel shift: pH 6.5, agarose gel/western blot
Experimental: Analysis of Muc5B reduction by western blot. Saliva was incubated with reducing agents at indicated concentrations for 30 min prior to agarose gel electrophoresis/western blot visualization of unreduced and reduced Muc5B. Both saliva and compounds were buffered to pH 6.5.
Quantitation of Muc5B reduction by western blot.
Saliva samples were aliquoted and incubated with the indicated concentrations of reducing agents (FIG. 4). After a 30 minute incubation, the reducing agents were quenched by the addition of a 10-fold molar excess of N-ethylmaliamide (NEM). The mucus samples were separated by agarose gel electrophoresis and analyzed by western blot.

[1] = Hydrogen peroxide incubation (oxygen free radical scavenging), read out by DTNB reduction; type: biochemical; settings: excess hydrogen peroxide, 60 second incubation; FIG. 10
Experimental: FIG. 10. Compound Ib was incubated with excess hydrogen peroxide to assess the ability of Compound Ib to scavenge oxygen free radicals. Following a 60 second incubation with hydrogen peroxide, the activity of Compound Ib was determined by its ability to reduce DTNB (Ellman's Reagent).

[2] = DTNB assay: rate of disulfide bond reduction; type: biochemical; settings: for reducing kinetic for DTNB reduction compared with NAC and DTT / DTNB reducing kinetics as a function of pH: FIG. 3; for reducing kinetic for DTNB reduction compared with NAC and DTT: comparison with thiol reducing agents; for DTNB reducing kinetics as a function of pH: pH range relevant for mucosal surfaces (pH 6.0-7.5)
From the text: FIG. 2. Spectrophotometric studies monitored formation of reduced DTNB over time. Reaction rates, generated using second order kinetics, for each compound were compared as a function of reducing agent to substrate (DTNB) concentration at pH 6.5.
FIG. 3. Spectrophotometric studies monitored formation of reduced DTNB over time. Reaction rates, generated using second order kinetics, for each compound were over a pH range relevant for mucosal surfaces.
Mucin Agarose Gel Western Blots: Reducing agent stock solutions are made up in 100 mM Potassium Phosphate and are buffered to pH 6.5. The reducing agent stocks are diluted into saliva samples (pH 6.5) to achieve the final desired reducing agent concentration. […] The reactions are quenched using at least a 2-fold excess of N-ethylmaleimide and/or hydrogen peroxide. A 5× concentrated sample loading buffer is diluted into the samples to achieve a 1× concentration (1×TAE, 5% glycerol, 0.1% SDS, Bromophenol Blue). Samples (50 ug) are analyzed by electrophoresis on 0.9% agarose gels using a buffer system consisting of 1×TAE/0.1% SDS. […] Unreduced and reduced Muc5B are visualized using a polyclonal antibody directed towards Muc5B and a Protoblot II AP System with stabilized substrate. […] Each compound solution (10 uL) is added apically to primary hBEs for 6 hrs. The hBEs are lysed in RIPA buffer supplemented with protease inhibitor cocktail (Roche) and 1 mM PMSF. The samples are normalized to contain the same total amount of protein followed by addition of 2×SDS sample buffer (100 mM Tris-HCl (pH6.8)/4% SDS/0.05% Bromophenol Blue/20% glycerol). Samples (20 […]g) are analyzed by electrophoresis on a 10% SDS-PAGE gel and transferred to a nitrocellulose membrane. BiP levels are visualized using a polyclonal antibody directed towards BiP and the LiCor Odyssey imaging detection system. Thapsigargin (TG, 2.5 µM) served as a positive control for BiP induction. DTNB ASSAY: This assay determines the rate which a mucolytic agent can reduce a disulfide bond using 5,5-Dithiobis(2-nitrobenzoic acid). DTNB in various pH buffers and allows comparison of the kinetic rates of reducing agents. […] Max Abs412 was measured and then utilized to calculate the activity concentration.
The kinetics of disulfide bond reduction can be quantitative measured using 5,5′-dithiobis-(2-nitrobenzoic acid) (DTNB or Ellman's Reagent). DTNB contains an internal disulfide bond, which when reduced, gives rise to two molecules of TNB that can be monitored by […] at 412 nm.

[3] = Elimination of inhaled 14C-labeled NAC from the lungs in animal studies; type: in vivo; settings: inhaled or intranasal, 14C-labeled NAC administered by inhalation, animal studies (unpublished observation)
From the text: NAC, as a topical pulmonary therapeutic agent, is not optimal for the reduction of mucin disulfide bonds. […] For example, in the pH environment of the airway surface (measured in the range of pH 6.0 to 7.2 in CF and COPD airways), NAC exists only partially in its reactive state as a negatively charge thiolate (Jayaraman S, Song Y, Vetrivel L, Shankar L, Verkman A S. Noninvasive in vivo fluorescence measurement of airway-surface liquid depth, salt concentration, and pH. J Clin Invest. 2001; 107(3):317-24) (FIG. 3). […] The relatively low reducing activity at of NAC physiologic airway pH and a the short half-life of NAC on the lung surface provide an explanation for the lack of strong clinical evidence for effective mucus reduction in mucus obstructive diseases.

Row | Compound | total cellularity of the BALF compared to vehicle (Balb-C mice) | potency of mucus (Muc5B) reduction relative to NAC and DTT (Muc5B) | concentration producing Muc5B (mucin) reduction by downward gel shift (Muc5B) [mM] | activity (ability to reduce DTNB) after incubation with hydrogen peroxide [1] | reducing kinetic for DTNB reduction compared with NAC and DTT [2] | DTNB reduction kinetics as a function of reducing agent to DTNB ratio ([2]; increasing concentrations of reducing agent, fixed concentration of DTNB and pH (7.0), FIG. 2) | DTNB reducing kinetics as a function of pH [2] | half-life [3] [min]
1 | O=C(O)CCP(CCC(=O)O)CCC(=O)O [Compound Ib, 3,3′,3″-phosphinetriyltripropanoic acid] | did not increase BALF cellularity compared to the vehicle | more potent | ≥ 1 | decreased the activity | faster reducing kinetic | fastest reduction kinetics at all ratios of reducing agent to DTNB substrate | pH-dependent increase in reducing activity | –
2 | O[C@H](CS)[C@H](O)CS (racemic) [DTT, dithiothreitol, reference compound] | – | – | ≥ 3 | – | – | – | pH-dependent increase in DTNB reduction | –
3 | CC(=O)N[C@@H](CS)C(=O)O [NAC, N-acetyl cysteine, reference compound] | – | – | > 100 | – | – | – | pH-dependent increase in DTNB reduction | ~20
4 | NCCP(c1ccccc1)c1ccccc1 [If, 2-(diphenylphosphino)ethanamine] | – | – | – | – | faster reducing kinetic | – | fastest reducing kinetic tested | –
